OC(CN1CCN(CC(O)(Cn2cncn2)c2ccc(F)cc2F)CC1)(Cn1cncn1)c1ccc(F)cc1F (stereo not given)
solubility (mole fraction)
Conditions | 293.15 K | 298.15 K | 303.15 K | 308.15 K | 313.15 K
in ethanol | 0.000305 | 0.00036 | 0.000401 | 0.000463 | 0.000548
in n-hexane | 9.77e-07 | 1.17e-06 | 1.37e-06 | 1.62e-06 | 1.92e-06
in n-octanol | 6.23e-05 | 7.87e-05 | 0.000101 | 0.000126 | 0.00016

Source: BigSolDB 2.1
